Experimental data published in patent publication US20120309705A1, “NOVEL 3'-DEOXY-3'-METHYLIDENE-BETA-L-NUCLEOSIDES” (priority 2009, published 2012).

Legend:
[1] = Cytotoxicity in MT-4 cells (MTS); format: cell-based; conditions: human
Method: MT-4 cells was added to 96-well microtiter plates in a volume of 50 μl (1×10^5 cells/mL). The cell medium contains the test compounds with the concentrations ranging 0.01 μM-31 μM. The cells were incubated at 37° C. with 5% CO2. At assay termination (6 days), 20-25 μL of MTS reagent is added per well and the microtiter plates are then incubated for 4-6 hrs at 37° C. with 5% CO2. The plate was read spectrophotometrically to assess cell viability. The cytotoxicity was calculated based on the cell viability in comparison with the control.

HBV = test: Anti-HBV activity in HepG2.2.15 cells (HBV DNA, TaqMan PCR); format: cell-based; conditions: Hepatitis B virus, 144 h, 6 days, HBV DNA in supernatant, read-out: Anti-HBV activity IC50 (HepG 2215)
Method: Human hepatoma cells with HBV (HepG2.2.15 cells) were used for the analyzing compounds of the invention for their HBV inhibitory activities. HepG2.2.15 cells were plated in 96-well microtiter plates. Only the interior wells were utilized to reduce “edge effects” observed during cell culture; the exterior wells were filled with complete medium to help minimize sample evaporation. After 16-24 hours the confluent monolayer of HepG2.2.15 cells were washed and the medium was replaced with complete medium containing various concentrations of a test compound in triplicate (compounds tested at 6 concentrations). Lamivudine was used as the positive control, while media alone was added to cells as a negative control. Three days later the culture medium was replaced with fresh medium containing the appropriately diluted drug. Six days following the initial administration of the test compound, the cell culture supernatant was collected, treated with pronase and then used in a real-time quantitative TaqMan PCR assay. The PCR-amplified HBV DNA was detected in real-time by monitoring increases in fluorescence signals that result from the exonucleolytic degradation of a quenched fluorescent probe molecule that hybridized to the amplified HBV DNA. For each PCR amplification, a standard curve was simultaneously generated using dilutions of purified HBV DNA. Anti-HBV activity was calculated from the reduction in HBV DNA levels. CellTiter-96 kit (Promega) is employed to measure cell viability in the same assay to confirm that the inhibition was not due to cytotoxicity in HepG 2 cells.

[2] = Cytotoxicity in HepG2 cells (MTT); format: cell-based; conditions: human
Method: HepG2 cells were seeded on 96-well plates at a density of 1×10^4 cells/well in 100 μl DMEM supplemented with 10% FBS, 100 U/ml penicillin/streptomycin and 2 mM L-glutamine. After 20 hours of incubation at 37° C. with 5% CO2, the medium was removed and replaced with fresh medium containing test compounds with the concentrations ranging 4.7-300 μM. The cells were incubated for 24 hours at 37° C. with 5% CO2. The medium was removed and replaced with 100 μl/well MTT (Sigma) in HBSS (0.5 mg/ml). After the incubation for 2 hours on gentle shake at 37° C., 100 μl/well of MTT lysis buffer was added to the wells and plates were covered and left over night to dissolve formazan crystals. Absorbance was measured at 570-630 nm in ELISA reader. The cytotoxicity was calculated based on the cell viability in comparison with the control.

HIV-1IIIB = test: Anti-HIV activity in MT-4 cells (cytopathic effect reduction); format: cell-based; conditions: Human immunodeficiency virus 1, MT4, 144 h, 6 days post-infection
Method: MT-4 cells were used for analyzing compounds of the invention for their HIV inhibitory activities. On the day preceding the assay, the cells were split 1:2 to assure they were in an exponential growth phase at the time of infection. Total cell number and percent viability determinations were performed using a hemacytometer and trypan blue exclusion. Cell viability must be greater than 95% for the cells to be utilized in the assay. The cells were re-suspended at 1×10^5 cells/mL in tissue culture medium and added to control or drug-containing 96-well microtiter plates in a volume of 50 μL. The viruses used for this assay were HIV-1IIIB. For each assay, a pre-titered aliquot of virus was removed from the freezer (−80° C.) and allowed to thaw slowly to room temperature in a biological safety cabinet. The virus was re-suspended and diluted into tissue culture medium such that the amount of virus added to each well in a volume of 50 μL was the amount determined to give between 85 to 95% cell killing at 6 days post-infection. The multiplicity of infection of these assays was approximately 0.01 and the volume added to the well of the microtiter plates was 50 μL. At assay termination (6 days post-infection), 20-25 μL of MTS reagent 3-(4,5-dimethylthiazol-2-yl)-5-(3-carboxymethoxyphenyl)-2-(4-sulfophenyl)-2H-tetrazolium (MTS; CellTiter 96 Reagent, Promega) was added per well and the microtiter plates were incubated for 4-6 hrs at 37° C., 5% CO2. Adhesive plate sealers were used in place of the lids, the sealed plate is inverted several times to mix the soluble formazan product. The plate was read spectrophotometrically at 490/650 nm with plate reader. Anti-HIV activity was calculated based on the Cytopathic Effect Reduction (%).

mutation rtA181V = mutation rtA181V (Hepatitis B virus genotype D subtype ayw, UniProt P03156, A516V); conditions: cited from earlier work
[3] = molecular target: rtN236T in HBV polymerase (Hepatitis B virus genotype D subtype ayw, UniProt P03156, N571T); conditions: cited from earlier work
[4] = test system: mutants resistant to lamivudine; conditions: cited from earlier work

Sequence of mutation rtA181V (P03156 whole entry A516V): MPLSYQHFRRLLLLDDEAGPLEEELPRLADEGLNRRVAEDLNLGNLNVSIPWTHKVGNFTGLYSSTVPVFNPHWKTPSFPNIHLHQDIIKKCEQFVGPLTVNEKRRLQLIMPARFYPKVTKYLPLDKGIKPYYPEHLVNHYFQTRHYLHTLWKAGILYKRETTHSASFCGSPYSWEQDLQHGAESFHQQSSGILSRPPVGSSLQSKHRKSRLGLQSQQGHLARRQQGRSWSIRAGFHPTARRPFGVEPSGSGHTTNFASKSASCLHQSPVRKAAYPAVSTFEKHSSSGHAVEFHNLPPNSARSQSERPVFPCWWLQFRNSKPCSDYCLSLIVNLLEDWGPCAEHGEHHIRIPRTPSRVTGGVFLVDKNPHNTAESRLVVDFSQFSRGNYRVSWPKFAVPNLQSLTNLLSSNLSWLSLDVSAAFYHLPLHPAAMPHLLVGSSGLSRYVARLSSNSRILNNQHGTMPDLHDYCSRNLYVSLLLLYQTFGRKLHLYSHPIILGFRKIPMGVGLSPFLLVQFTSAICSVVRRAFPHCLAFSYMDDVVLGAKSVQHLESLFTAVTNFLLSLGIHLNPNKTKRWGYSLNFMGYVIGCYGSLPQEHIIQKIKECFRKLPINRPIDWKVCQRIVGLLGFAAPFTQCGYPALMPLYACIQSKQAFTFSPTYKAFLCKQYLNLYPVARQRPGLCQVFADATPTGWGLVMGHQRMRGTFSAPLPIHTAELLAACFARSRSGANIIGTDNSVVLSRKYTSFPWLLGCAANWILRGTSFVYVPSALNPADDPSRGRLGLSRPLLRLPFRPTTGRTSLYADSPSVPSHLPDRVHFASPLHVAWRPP
Sequence of rtN236T in HBV polymerase (P03156 whole entry N571T): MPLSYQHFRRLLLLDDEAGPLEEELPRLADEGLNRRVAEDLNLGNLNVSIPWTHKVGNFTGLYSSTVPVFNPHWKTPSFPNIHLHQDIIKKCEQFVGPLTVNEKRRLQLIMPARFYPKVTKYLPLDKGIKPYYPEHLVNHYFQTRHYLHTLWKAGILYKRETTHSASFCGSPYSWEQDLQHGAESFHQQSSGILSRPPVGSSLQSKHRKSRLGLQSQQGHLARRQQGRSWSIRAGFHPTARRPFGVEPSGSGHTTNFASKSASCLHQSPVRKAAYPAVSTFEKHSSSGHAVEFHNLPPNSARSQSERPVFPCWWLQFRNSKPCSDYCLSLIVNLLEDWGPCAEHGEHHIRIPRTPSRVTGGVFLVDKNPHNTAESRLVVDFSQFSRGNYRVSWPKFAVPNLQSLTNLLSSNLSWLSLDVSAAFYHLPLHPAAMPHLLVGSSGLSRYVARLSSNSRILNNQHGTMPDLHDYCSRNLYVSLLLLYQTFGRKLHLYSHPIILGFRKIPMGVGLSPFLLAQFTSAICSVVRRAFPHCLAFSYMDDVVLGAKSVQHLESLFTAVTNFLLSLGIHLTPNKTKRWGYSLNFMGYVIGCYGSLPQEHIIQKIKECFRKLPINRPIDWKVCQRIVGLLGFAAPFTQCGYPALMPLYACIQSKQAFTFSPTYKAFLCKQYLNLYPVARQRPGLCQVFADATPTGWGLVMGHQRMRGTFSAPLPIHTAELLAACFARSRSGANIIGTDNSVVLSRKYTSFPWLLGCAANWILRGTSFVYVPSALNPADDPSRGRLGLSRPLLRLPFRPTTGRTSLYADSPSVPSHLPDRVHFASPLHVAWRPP

Row | SMILES | CC50 at 6 days [1] | IC50 (HBV) | CC50 at 24 h [2] | IC50 (HIV-1IIIB) | activity loss (mutation rtA181V) | loss of susceptibility [3] | cross-resistance of lamivudine-resistant mutants [4]
1 | C=C1C[C@@H](n2ccc(=O)[nH]c2=O)O[C@H]1CO [Compound 8, 1-(2,3-dideoxyl-3-methylidene-β-L-pentofuranosyl)uracil] | > 32 µM | > 32 µM | > 32 µM | > 32 µM | – | – | –
2 | C=C1C[C@@H](n2ccc(N)nc2=O)O[C@H]1CO [Compound 10, 1-(2,3-dideoxyl-3-methylidene-β-L-pentofuranosyl)cytosine] | > 32 µM | < 1 µM | > 300 µM | 1 to 32 µM | – | – | –
3 | C=C1[C@H](CO)O[C@H](n2ccc(N)nc2=O)[C@H]1O [Compound 17, 1-(3-deoxy-3-methylidene-β-L-pentoribofuranosyl)cytosine] | > 32 µM | – | > 300 µM | > 32 µM | – | – | –
4 | C=C1C[C@@H](n2cc(C)c(=O)[nH]c2=O)O[C@H]1CO [Compound 26, 1-(2,3-dideoxy-3-methylidene-β-L-pentofuranosyl)thymine] | > 32 µM | < 1 µM | > 300 µM | > 32 µM | – | – | –
5 | C=C1[C@H](CO)O[C@H](n2ccc(N)nc2=O)[C@@H]1O [Compound 28, 1-(3-deoxy-3-methylidene-β-L-arabinopentofuranosyl)cytosine] | > 32 µM | – | > 300 µM | > 32 µM | – | – | –
6 | C=C1[C@H](CO)O[C@H](n2ccc(N)nc2=O)[C@H]1F [Compound 37, 1-[2-deoxy-2-(S)-fluoro-3-deoxy-3-methylidene-β-L-pentofuranosyl]cytosine] | > 32 µM | – | > 300 µM | > 32 µM | – | – | –
7 | C=C1[C@H](CO)O[C@H](n2ccc(N)nc2=O)[C@@H]1F [Compound 47, 1-[2-deoxy-2-(R)-fluoro-3-deoxy-3-methylidene-β-L-pentofuranosyl]cytosine] | > 32 µM | – | > 300 µM | > 32 µM | – | – | –
8 | C=C1[C@H](CO)O[C@H](n2ccc(N)nc2=O)[C@H]1C [Compound 57, 4-Amino-1-[(2S,3S,5R)-5-(hydroxymethyl)-3-methyl-4-methylenetetrahydrofuran-2-yl]pyrimidin-2(1H)-one] | – | – | > 300 µM | – | – | – | –
9 | C=C1C[C@@H](n2cc(F)c(N)nc2=O)O[C@H]1CO [Compound 66, 1-(2,3-dideoxyl-3-methylidene-β-L-pentofuranosyl)-5-fluorocytosine] | – | < 1 µM | > 300 µM | – | – | – | –
10 | C=C1C[C@@H](n2cnc3c(N)ncnc32)O[C@H]1CO [Compound 71, 9-(2,3-dideoxyl-3-methylidene-β-L-pentofuranosyl)adenine] | – | < 1 µM | > 300 µM | – | – | – | –
11 | C=C1C[C@@H](n2cnc3c(=O)[nH]c(N)nc32)O[C@H]1CO [Compound 75, 9-(2,3-dideoxyl-3-methylidene-β-L-pentofuranosyl)guanine] | > 32 µM | – | – | > 32 µM | – | – | –
12 | Nc1ncnc2c1ncn2CCOCP(=O)(O)O [adefovir] | – | – | – | – | about 33 fold | about 10 fold | –
13 | C=C1[C@H](CO)[C@@H](O)C[C@@H]1n1cnc2c(=O)[nH]c(N)nc21 [entecavir] | – | – | – | – | – | – | cross-resistance
14 | Cc1cn([C@@H]2C[C@@H](O)[C@H](CO)O2)c(=O)[nH]c1=O [telbivudine] | – | – | – | – | – | – | cross-resistance
